Results published in patent US20030187240A1, “2' -modified oligonucleotides” (ISIS Pharmaceuticals, Inc., priority 1990, published 2003).
Where “and” joins values, the source holds several entries; their conditions need not be identical. Equal values may be shown once. Entries after “also recorded” stand apart in the source; their conditions may differ. Strand notation (5' to 3'): a small letter for the sugar, then the base; units joined by * are phosphorothioate-linked, units joined directly phosphodiester-linked; [ ] holds rarer units or linkages, { } end groups; capitals alone tell only the bases. d = 2'-deoxy (DNA); m = 2'-O-methyl

Tests used:
[1] = test system: c-raf mRNA; test: Northern blot analysis of inhibition of c-raf mRNA expression in T24 cells; format: cell-based, human
Source text: Chimeric oligonucleotides having SEQ ID NO: 7 were designed using the Genbank c-raf sequence HUMRAFR (Genbank listing x03484), synthesized and tested for inhibition of c-raf mRNA expression in T24 bladder carcinoma cells using a Northern blot assay. These chimeric oligonucleotides have central “gap” regions of 6, 8 or 10 deoxynucleotides flanked by two regions of 2′-O-methyl modified nucleotides, and are shown in Table 10. Backbones were uniformly phosphorothioate. […] These oligonucleotides are preferred.
The human urinary bladder cancer cell line T24 was obtained from the American Type Culture Collection (Rockville, Md.). Cells were grown in McCoy's 5A medium with L-glutamine (GIBCO-BRL, Gaithersburg, Md.), supplemented with 10% heat-inactivated fetal calf serum and 50 U/ml each of penicillin and streptomycin. Cells were seeded on 100 mm plates. When they reached 70% confluency, they were treated with oligonucleotide. Plates were washed with 10 ml prewarmed PBS and 5 ml of OptiMEM reduced-serum medium containing 2.5 μl DOTMA. Oligonucleotide with lipofectin was then added to the desired concentration. After 4 hours of treatment, the medium was replaced with McCoy's medium. Cells were harvested 24 to 72 hours after oligonucleotide treatment and RNA was isolated using a standard CsCl purification method. [Kingston in Current Protocols in Molecular Biology, F. M. Ausubel, R. Brent, R. E. Kingston, D. D. Moore, J. A. Smith, J. G. Seidman and K. Strahl, Eds., John Wiley and Sons, New York.] Total RNA was isolated by centrifugation of cell lysates over a CsCl cushion. RNA samples were electrophoresed through 1.2% agarose-formaldehyde gels and transferred to hybridization membranes by capillary diffusion over a 12-14 hour period. The RNA was cross-linked to the membrane by exposure to UV light in a Stratalinker (Stratagene, La Jolla, Calif.) and hybridized to random-primed ^32P-labeled c-raf cDNA probe (obtained from ATCC) or G3PDH probe as a control. RNA was quantitated using a Phosphorimager (Molecular Dynamics, Sunnyvale, Calif.).

[2] = test system: ras expression in HeLa cells (wild-type H-ras codon-12); test: Northern blot analysis of ras expression in HeLa cells; format: cell-based, human
Experimental: The human urinary bladder cancer cell line T24 was obtained from the American Type Culture Collection (Rockville Md.). Cells were grown in McCoy's 5A medium with L-glutamine (GIBCO-BRL, Gaithersburg, Md.), supplemented with 10% heat-inactivated fetal calf serum and 50 U/ml each of penicillin and streptomycin. Cells were seeded on 100 mm plates. When they reached 70% confluency, they were treated with oligonucleotide. Plates were washed with 10 ml prewarmed PBS and 5 ml of OptiMEM (GIBCO) reduced-serum medium containing 2.5 μl DOTMA. Oligonucleotide was then added to the desired concentration. After 4 hours of treatment, the medium was replaced with McCoy's medium. Cells were harvested 48 hours after oligonucleotide treatment and RNA was isolated using a standard CsCl purification method. [Kingston in Current Protocols in Molecular Biology, F. M. Ausubel, R. Brent, R. E. Kingston, D. D. Moore, J. A. Smith, J. G. Seidman and K. Strahl, Eds., John Wiley and Sons, New York.] […]
Northern hybridization: 10 μg of each RNA was electrophoresed on a 1.2% agarose/formaldehyde gel and transferred overnight to GeneBind 45 nylon membrane (Pharmacia LKB, Piscataway, N.J.) using standard methods. […] Blots were autoradiographed and the intensity of signal was quantitated using an ImageQuant PhosphorImager (Molecular Dynamics, Sunnyvale, Calif.). […]

[3] = test system: ras mRNA; test: Northern blot analysis of ras expression in T24 cells; format: cell-based, human; set-up: inhibition of ras expression / decrease of ras mRNA: concentration or dose not given beside the values; settings: for inhibition of ras expression in T24 cells: result in words
Experimental: The human urinary bladder cancer cell line T24 was obtained from the American Type Culture Collection (Rockville Md.). Cells were grown in McCoy's 5A medium with L-glutamine (GIBCO-BRL, Gaithersburg, Md.), supplemented with 10% heat-inactivated fetal calf serum and 50 U/ml each of penicillin and streptomycin. Cells were seeded on 100 mm plates. When they reached 70% confluency, they were treated with oligonucleotide. Plates were washed with 10 ml prewarmed PBS and 5 ml of OptiMEM (GIBCO) reduced-serum medium containing 2.5 μl DOTMA. Oligonucleotide was then added to the desired concentration. After 4 hours of treatment, the medium was replaced with McCoy's medium. Cells were harvested 48 hours after oligonucleotide treatment and RNA was isolated using a standard CsCl purification method. [Kingston in Current Protocols in Molecular Biology, F. M. Ausubel, R. Brent, R. E. Kingston, D. D. Moore, J. A. Smith, J. G. Seidman and K. Strahl, Eds., John Wiley and Sons, New York.] The human epithelioid carcinoma cell line HeLa 229 was obtained from the American Type Culture Collection (Bethesda, Md.). HeLa cells were maintained as monolayers on 6-well plates in Dulbecco's Modified Eagle's medium (DMEM) supplemented with 10 fetal bovine serum and 100 U/ml penicillin. Treatment with oligonucleotide and isolation of RNA were essentially as described above for T24 cells.
Northern hybridization: 10 μg of each RNA was electrophoresed on a 1.2% agarose/formaldehyde gel and transferred overnight to GeneBind 45 nylon membrane (Pharmacia LKB, Piscataway, N.J.) using standard methods. [Kingston in Current Protocols in Molecular Biology, F. M. Ausubel, R. Brent, R. E. Kingston, D. D. Moore, J. A. Smith, J. G. Seidman and K. Strahl, Eds., John Wiley and Sons, New York.] RNA was UV-crosslinked to the membrane. Double-stranded ^32P-labeled probes were synthesized using the Prime a Gene labeling kit (Promega, Madison Wis.). The ras probe was a SalI-NheI fragment of a cDNA clone of the activated (mutant) H-ras mRNA having a GGC-to-GTC mutation at codon-12. The control probe was G3PDH. Blots were prehybridized for 15 minutes at 68° C. with the QuickHyb hybridization solution (Stratagene, La Jolla, Calif.). The heat-denatured radioactive probe (2.5×10^6 counts/2 ml hybridization solution) mixed with 100 μl of 10 mg/ml salmon sperm DNA was added and the membrane was hybridized for 1 hour at 68° C. The blots were washed twice for 15 minutes at room temperature in 2×SSC/0.1% SDS and once for 30 minutes at 60° C. with 0.1×SSC/0.1%SDS. Blots were autoradiographed and the intensity of signal was quantitated using an ImageQuant PhosphorImager (Molecular Dynamics, Sunnyvale, Calif.). Northern blots were first hybridized with the ras probe, then stripped by boiling for 15 minutes in 0.1×SSC/0.1%SDS and rehybridized with the control G3PDH probe to check for correct sample loading.

[4] = test system: H-ras; test: ras transactivation reporter gene assay; format: cell-based; settings: antisense activity against H-ras, 17-mer with 7-deoxy gap
Source text: The expression plasmid pSV2-oli, containing an activated (codon 12, GGC→GTC) H-ras cDNA insert under control of the constitutive SV40 promoter, was a gift from Dr. Bruno Tocque (Rhone-Poulenc Sante, Vitry, France). This plasmid was used as a template to construct, by PCR, a H-ras expression plasmid under regulation of the steroid-inducible mouse mammary tumor virus (MMTV) promoter. To obtain H-ras coding sequences, the 570 bp coding region of the H-ras gene was amplified by PCR. The PCR primers were designed with unique restriction endonuclease sites in their 5′-regions to facilitate cloning. The PCR product containing the coding region of the H-ras codon 12 mutant oncogene was gel purified, digested, and gel purified once again prior to cloning. This construction was completed by cloning the insert into the expression plasmid pMAMneo (Clontech Laboratories, Calif.).
The ras-responsive reporter gene pRD053 was used to detect ras expression. [Owen et al., Proc. Natl. Acad. Sci. U.S.A., 87, 3866 (1990).

[5] = test system: T24 cancer cell proliferation; test: Inhibition of proliferation of cancer cells; format: cell-based, human; settings: for inhibition of cell proliferation / IC50: T24 cells; for IC50: dose-response study
Experimental: Cells were cultured and treated with oligonucleotide essentially as described in Example 27. Cells were seeded on 60 mm plates and were treated with oligonucleotide in the presence of DOTMA when they reached 70% confluency. Time course experiment: On day 1, cells were treated with a single dose of oligonucleotide at a final concentration of 100 nM. The growth medium was changed once on day 3 and cells were counted every day for 5 days, using a counting chamber. Dose-response experiment: Various concentrations of oligonucleotide (10, 25, 50, 100 or 250 nM) were added to the cells and cells were harvested and counted 3 days later. Oligonucleotides 2570, 3985 and 4690 were tested for effects on T24 cancer cell proliferation.

[6] = test system: crude HeLa cellular extracts
[7] = test system: codon-12 point mutation of mutant (activated) H-ras RNA; format: cell-based, human
[8] = test system: 25 mer oligoribonucleotide complement; test: Melting curves of 2′-modified 17-mers with 7-deoxy gap; format: binding; settings: 17-mer with 7-deoxy gap hybridized with 25 mer oligoribonucleotide complement
Source text: This is attributed to these phosphodiester compounds being substrates for nucleases that degrade such phosphodiester compounds thus preventing them potentially activating RNase H. Other sugar modifications: The effects of other 2′ sugar modifications besides 2′-O-methyl on antisense activity in chimeric oligonucleotides have been examined. These modifications are listed in Table 4, along with the Tm values obtained when 17 mer oligonucleotides having 2′-modified nucleotides flanking a 7-base deoxy gap were hybridized with a 25 mer oligoribonucleotide complement as described in Example 25. […] As alkyl length increased, Tm decreased.
Absorbance vs. temperature curves were measured at 260 nm using a Gilford 260 spectrophotometer interfaced to an IBM PC computer and a Gilford Response II spectrophotometer. The buffer contained 100 mM Na^+, 10 mM phosphate and 0.1 mM EDTA, pH 7. Oligonucleotide concentration was 4 μM each strand determined from the absorbance at 85° C. and extinction coefficients calculated according to Puglisi and Tinoco [Methods in Enzymol., 180, 304 (1989). Tm values, free energies of duplex formation and association constants were obtained from fits of data to a two state model with linear sloping baselines. [Petersheim and Turner, Biochemistry, 22, 256 (1983). Reported parameters are averages of at least three experiments. For some oligonucleotides, free energies of duplex formation were also obtained from plots of Tm^−1 vs log10 (concentration). Borer et al., J. Mol. Biol., 86, 843 (1974).

TCCCGCCTGTGACATGCATT (sugars from the 5' end m7 d6 m7, all phosphorothioate, T or U not given here) [Oligonucleotide 6720]
inhibition of c-raf mRNA expression [1]: greater than 70%

7856 (dT*dT*dC*dT*dC*dG*dC*dC*dC*dG*dC*dT*dC*dC*dT*dC*dC*dT*dC*dC) [Oligonucleotide 7856]
inhibition of c-raf mRNA expression [1]: > 70%

T C C G T C AT C G C T C C T C A G G G [Oligonucleotide 2503]
inhibition of ras expression in HeLa cells [2]: inhibited ras expression in HeLa cells
inhibition of ras expression / decrease of ras mRNA [3]: 71%
inhibition of ras expression in T24 cells [3]: inhibited ras expression in T24 cells

CdCdAd CdAdCd CdGdAd CdGdGd CdGdCd CdCd [Oligonucleotide 2570, reference compound]
IC50 [4]: 0.15 µM
inhibition of ras expression in HeLa cells [2]: did not inhibit ras expression in HeLa cells
inhibition of ras expression / decrease of ras mRNA [3]: 82%
inhibition of ras expression in T24 cells [3]: inhibited ras expression in T24 cells; also recorded: decreased ras mRNA levels in T24 cells
inhibition of T24 cell proliferation relative to inhibition of HeLa cells ([5]; 100 nM oligonucleotide concentration): four times as severe
inhibition of cell proliferation [5]: 61%
IC50 [5]: 0.098 µM
degradation in HeLa cell extract [6]: no degradation after 5 hours
inhibition of ras-luciferase activity [7]: dose-dependent inhibition of ras-luciferase activity
selectivity toward the mutant form of ras-luciferase as compared to the normal form [7]: approximate threefold selectivity
Tm (° C.) [8]: 6 °C

7854 (TTCTCCTCCTCCCCTGGCAG; sugars from the 5' end m12 d8, all phosphorothioate, T or U not given here) [Oligonucleotide 7854]
inhibition of c-raf mRNA expression [1]: > 70%

6717 (TCCCGCCTGTGACATGCATT; sugars from the 5' end m6 d8 m6, all phosphorothioate, T or U not given here) [Oligonucleotide 6717]
inhibition of c-raf mRNA expression [1]: greater than 90%

7849 (dC*dT*dC*dG*dC*dC*dC*dG*dC*dT*dC*dC*dT*dC*dC*dT*dC*dC*dC*dC) [Oligonucleotide 7849]
inhibition of c-raf mRNA expression [1]: > 70%

TCCTCCTCCCCGCGGCGGGT (sugars from the 5' end m11 d9, all phosphorothioate, T or U not given here) [Oligonucleotide 7848]
inhibition of c-raf mRNA expression [1]: > 70%

3985 (CCACACCGACGGCGCCC; 2'-O-methyl wings, phosphorothioate, wing lengths not given here) [Oligonucleotide 3985]
inhibition of ras expression / decrease of ras mRNA [3]: 95% and 81%
inhibition of cell proliferation [5]: 82%
IC50 [5]: 0.061 µM
inhibition of ras-luciferase activity [7]: greatest inhibition
